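The compound was tested at five concentrations on cells cultured in 96-well plates, with a 48-hour exposure period. TGI denotes the concentration required for complete inhibition of growth.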
Columns and labels:
Test in all cases: NCI tumour cell line growth inhibition, 48 h
ACHN renal = test system: ACHN renal
COLO 205 colon = test system: COLO 205 colon
HOP-62 NSCLC = test system: HOP-62 NSCLC
M14 melanoma = test system: M14 melanoma
RPMI-8226 leukemia = test system: RPMI-8226 leukemia
SF-268 CNS = test system: SF-268 CNS
SK-MEL-28 melanoma = test system: SK-MEL-28 melanoma
SNB-75 CNS = test system: SNB-75 CNS
SR leukemia = test system: SR leukemia
TK-10 renal = test system: TK-10 renal

Compound: O=C(CCBr)N1CCN(C(=O)CCBr)CC1
- TGI (ACHN renal): 316 µM
- TGI (COLO 205 colon): 225 µM
- TGI (HOP-62 NSCLC): 155 µM
- TGI (M14 melanoma): 131 µM
- TGI (RPMI-8226 leukemia): 394 µM
- TGI (SF-268 CNS): 153 µM
- TGI (SK-MEL-28 melanoma): 252 µM
- TGI (SNB-75 CNS): 180 µM
- TGI (SR leukemia): 174 µM
- TGI (TK-10 renal): 488 µM

Compound: COc1cccc2c1C(=O)c1c(O)c3c(c(O)c1C2=O)C[C@@](O)(C(C)=O)CC3S(=O)(=O)O (stereo not given in full)
- TGI (ACHN renal): > 100 µM
- TGI (COLO 205 colon): > 100 µM
- TGI (HOP-62 NSCLC): > 100 µM
- TGI (M14 melanoma): > 100 µM
- TGI (RPMI-8226 leukemia): > 100 µM
- TGI (SF-268 CNS): > 100 µM
- TGI (SK-MEL-28 melanoma): > 100 µM
- TGI (SNB-75 CNS): > 93 µM
- TGI (SR leukemia): > 100 µM
- TGI (TK-10 renal): > 100 µM

Compound: O=C1C=C(Nc2ccccc2C(=O)CC(=O)C(=O)Nc2ccc(Cl)cc2)c2ccccc2C1=O
- TGI (ACHN renal): 55.1 µM
- TGI (COLO 205 colon): 34.5 µM
- TGI (HOP-62 NSCLC): 44.5 µM
- TGI (M14 melanoma): 24.1 µM
- TGI (RPMI-8226 leukemia): > 33.2 µM
- TGI (SF-268 CNS): 57.5 µM
- TGI (SK-MEL-28 melanoma): 35 µM
- TGI (SNB-75 CNS): 36 µM
- TGI (SR leukemia): > 100 µM
- TGI (TK-10 renal): > 100 µM

Compound: COc1ccc2nc3c([N+](=O)[O-])ccc(NCCN(C)C)c3c(N)c2c1
- TGI (ACHN renal): 2.64 µM
- TGI (COLO 205 colon): 2.31 µM
- TGI (HOP-62 NSCLC): 3.65 µM
- TGI (M14 melanoma): 3.03 µM
- TGI (RPMI-8226 leukemia): 0.557 µM
- TGI (SF-268 CNS): 3.12 µM
- TGI (SK-MEL-28 melanoma): 4.16 µM
- TGI (SNB-75 CNS): 2.62 µM
- TGI (SR leukemia): 2.9 µM
- TGI (TK-10 renal): 3.09 µM

Compound: Cc1cc2nc3c(C#N)c4c(c(Nc5ccc(F)cc5)n3c2cc1C)CCC4
- TGI (ACHN renal): > 100 µM
- TGI (COLO 205 colon): > 100 µM
- TGI (HOP-62 NSCLC): > 100 µM
- TGI (M14 melanoma): > 100 µM
- TGI (RPMI-8226 leukemia): > 100 µM
- TGI (SF-268 CNS): > 100 µM
- TGI (SK-MEL-28 melanoma): > 100 µM
- TGI (SNB-75 CNS): > 100 µM
- TGI (SR leukemia): > 100 µM
- TGI (TK-10 renal): > 100 µM

Compound: CC(C)(C)COC(=O)C(C)(C)NC(=O)C(CC(=O)OCc1ccccc1)NC(=O)OCc1ccccc1 (stereo not given)
- TGI (ACHN renal): > 100 µM
- TGI (COLO 205 colon): 44 µM
- TGI (HOP-62 NSCLC): > 100 µM
- TGI (M14 melanoma): > 100 µM
- TGI (RPMI-8226 leukemia): > 100 µM
- TGI (SF-268 CNS): > 100 µM
- TGI (SK-MEL-28 melanoma): > 100 µM
- TGI (SNB-75 CNS): > 100 µM
- TGI (SR leukemia): > 100 µM
- TGI (TK-10 renal): 78.7 µM

Compound: O=C1/C(=C/c2ccc(Cl)cc2)Oc2cc(O)ccc21
- TGI (ACHN renal): 61.2 µM
- TGI (COLO 205 colon): > 100 µM
- TGI (HOP-62 NSCLC): > 100 µM
- TGI (M14 melanoma): > 100 µM
- TGI (RPMI-8226 leukemia): > 100 µM
- TGI (SF-268 CNS): > 100 µM
- TGI (SK-MEL-28 melanoma): > 100 µM
- TGI (SNB-75 CNS): > 100 µM
- TGI (SR leukemia): 47.1 µM
- TGI (TK-10 renal): 96.8 µM

Compound: Cc1cc2cc3cc(C)c(N)cc3nc2cc1N
- TGI (ACHN renal): 1.6 µM
- TGI (COLO 205 colon): 1.98 µM
- TGI (HOP-62 NSCLC): 1.32 µM
- TGI (M14 melanoma): 21.9 µM
- TGI (RPMI-8226 leukemia): 1.31 µM
- TGI (SF-268 CNS): 2.71 µM
- TGI (SK-MEL-28 melanoma): 2.94 µM
- TGI (SNB-75 CNS): 6.9 µM
- TGI (SR leukemia): 1.44 µM
- TGI (TK-10 renal): 1.62 µM

Compound: Cc1ccc(S(=O)(=O)N2CCC[C@@H]2C(=O)O[C@@H]2CCC3CC=CC32)cc1 (stereo not given in full)
- TGI (ACHN renal): > 100 µM
- TGI (COLO 205 colon): 31.2 µM
- TGI (HOP-62 NSCLC): 97.2 µM
- TGI (M14 melanoma): > 100 µM
- TGI (RPMI-8226 leukemia): 61.3 µM
- TGI (SF-268 CNS): 75 µM
- TGI (SK-MEL-28 melanoma): > 100 µM
- TGI (SNB-75 CNS): > 100 µM
- TGI (SR leukemia): 61 µM
- TGI (TK-10 renal): > 100 µM

Compound: CC(=O)C1=C(C)O[C@@H]2O[C@H](COCc3ccccc3)[C@@H](OCc3ccccc3)[C@H](O)[C@@H]2S1
- TGI (ACHN renal): 52.5 µM
- TGI (COLO 205 colon): 54.5 µM
- TGI (HOP-62 NSCLC): 46.2 µM
- TGI (M14 melanoma): 39.8 µM
- TGI (RPMI-8226 leukemia): 42.6 µM
- TGI (SF-268 CNS): 32 µM
- TGI (SK-MEL-28 melanoma): 64 µM
- TGI (SNB-75 CNS): 77.1 µM
- TGI (SR leukemia): 46.1 µM
- TGI (TK-10 renal): 51.3 µM

Compound: N#Cc1c(N)oc(-c2ccc([N+](=O)[O-])cc2)c1C#N
- TGI (ACHN renal): 72.4 µM
- TGI (COLO 205 colon): > 100 µM
- TGI (HOP-62 NSCLC): 73.5 µM
- TGI (M14 melanoma): > 100 µM
- TGI (RPMI-8226 leukemia): > 100 µM
- TGI (SF-268 CNS): 58.9 µM
- TGI (SK-MEL-28 melanoma): > 100 µM
- TGI (SNB-75 CNS): 47.1 µM
- TGI (SR leukemia): > 100 µM
- TGI (TK-10 renal): 76.8 µM

Compound: O[C@@H]1C[C@H](Cl)c2c(Cl)sc(Cl)c21
- TGI (ACHN renal): > 100 µM
- TGI (COLO 205 colon): > 100 µM
- TGI (HOP-62 NSCLC): > 100 µM
- TGI (M14 melanoma): > 100 µM
- TGI (RPMI-8226 leukemia): > 100 µM
- TGI (SF-268 CNS): > 100 µM
- TGI (SK-MEL-28 melanoma): > 100 µM
- TGI (SNB-75 CNS): > 100 µM
- TGI (SR leukemia): > 100 µM
- TGI (TK-10 renal): > 100 µM

Compound: Cn1c2ccc(F)cc2c2ccc3c(c21)C(=O)C=CC3=O
- TGI (ACHN renal): 13.7 µM
- TGI (COLO 205 colon): 21.6 µM
- TGI (HOP-62 NSCLC): > 100 µM
- TGI (M14 melanoma): 27.3 µM
- TGI (RPMI-8226 leukemia): 33.4 µM
- TGI (SF-268 CNS): 58.2 µM
- TGI (SK-MEL-28 melanoma): 28.5 µM
- TGI (SNB-75 CNS): 97.8 µM
- TGI (SR leukemia): > 20.2 µM
- TGI (TK-10 renal): 13.7 µM

Compound: CN(C)Cc1c(O)ccc2c1c1c(n2C)C(=O)c2ccccc2C1=O
- TGI (ACHN renal): > 100 µM
- TGI (COLO 205 colon): 40 µM
- TGI (HOP-62 NSCLC): > 100 µM
- TGI (M14 melanoma): > 100 µM
- TGI (RPMI-8226 leukemia): > 100 µM
- TGI (SF-268 CNS): > 100 µM
- TGI (SK-MEL-28 melanoma): 20 µM
- TGI (SNB-75 CNS): 51.8 µM
- TGI (SR leukemia): > 100 µM
- TGI (TK-10 renal): 50.7 µM
